# Assay results reported in patent publication US20090105463A1, “Compositions of and Methods of Using Oversulfated Glycosaminoglycans” (Massachusetts Institute of Technology, priority 2005, published 2009).
# B1: FGF7: Recombinant FGF7 from Sigma (protein, UniProt P21781 32-194, looked up)
# Fibroblast growth factor 7: CNDMTPEQMATNVNCSSPERHTRSYDYMEGGDIRVRRLFCRTQWYLRIDKRGKVKGTQEMKNNYNIMEIRTVAVGIVAIKGVESEFYLAMNKEGKLYAKKECNEDCNFKELILENHYNTYASAKWTHNGGEMFVALNQKGIPVRGKKTKKEQKTAHFLPMAIT
# B2: VEGF-C: vascular endothelial growth factor C, ligand of VEGFR2 and VEGFR3 (protein, UniProt P49767 112-227, looked up)
# Vascular endothelial growth …: AHYNTEILKSIDNEWRKTQCMPREVCIDVGKEFGVATNTFFKPPCVSVYRCGGCCNSEGLQCMNTSTSYLSKTLFEITVPLSQGPKPVTISFANHTSCRCMSKLDVYRQVHSIIRR
# B3: VEGF-D: vascular endothelial growth factor D, ligand of VEGFR2 and VEGFR3 (protein, UniProt O43915 89-205, looked up)
# Vascular endothelial growth …: FAATFYDIETLKVIDEEWQRTQCSPRETCVEVASELGKSTNTFFKPPCVNVFRCGGCCNEESLICMNTSTSYISKQLFEISVPLTSVPELVPVKVANHTGCKCLPTAPRHPYSIIRR
# Legend:
# Type in all cases: cell-based, rat
# NBT-II cells = experiment: Proliferation assay, whole cell number by electronic cell counter; set-up: reduction in whole cell number / reduction in cell number in the presence of FGF7: concentration or dose not given beside the values; settings: for percent reduction in whole cell number ± standard deviation / proliferative effect of ligand in the absence of GAGs / reduction in whole cell number: no GAG; for proliferative effect of ligand in the absence of GAGs: ligand 10 ng/ml; for reduction in whole cell number: ligand alone; for reduction in whole cell number / reduction in cell number in the presence of FGF7: compared to untreated cells; for reduction in cell number in the presence of FGF7: ligand plus FGF7, no GAG
# Method: NBT-II cells were grown until confluence in 75 cm^2 flasks. Each flask was washed with 20 ml PBS and treated with 3 ml trypsin-EDTA at 37° C. for ˜15 minutes until cells completely detached. Cells were centrifuged for 3 minutes at 195×g. The supernatant was aspirated, and the cells were resuspended in 10 ml media. Cell density was measured using an electronic cell counter, and the suspension was diluted to 50,000 cells/ml. The suspension was plated 1 ml/well into 24-well tissue culture plates. After a 24 hour incubation in a 5% CO2, 37° C. humidified incubator, the media was aspirated, the wells were washed with serum free media, and the cells were supplemented with media containing 0.1% FBS and incubated for 24 hours. Cells were sequentially treated with antibodies, GAGs and growth factors as appropriate. Sodium chlorate was added at 50 mM [30]. Antibodies to VEGFR2 or VEGFR3 were added to yield a final dilution of 1:100. All GAGs were initially added over a range of concentrations from 1 ng/ml to 100 μg/ml. Heparin, UDS and DS DT were subsequently added at 1 μg/ml unless otherwise noted. FGF1, FGF2, FGF7 and VEGF were added at 10 ng/ml unless otherwise noted. Cells were then incubated for 72 hours. Wells were then washed twice with PBS and treated with 0.5 ml trypsin-EDTA/well and incubated for 10 minutes at 37° C. Whole cell number was determined using an electronic cell counter.
# VEGF-C = experiment: Whole cell ELISA for VEGF-C
# Method: (§1) ELISA was performed using whole cells to quantify relative levels of kinase activity. NBT-II cells were grown until confluence in 75 cm^2 flasks. Each flask was washed with 20 ml PBS and treated with 3 ml trypsin-EDTA at 37° C. for 3-5 minutes, until cells detached. Cells were centrifuged for 3 minutes at 195×g. The supernatant was aspirated, and the cells were resuspended in 10 ml media. The cell density was measured using an electronic cell counter, and the suspension was diluted to 50,000 cells/ml. 100 mm dishes were supplemented with 10 ml cell suspension per dish. After a 24 hour incubation, the media was aspirated, the dishes washed with serum free media, and the cells supplemented with media containing 0.1% FBS. After a 24 hour incubation, dishes were treated with PBS, 10 μg/ml heparin or 10 μg/ml DS DT. […] Cells were incubated for 30 minutes (for Erk1, Erk2, phosphor-Erk1/2, Mek1, Mek2, phospho-Mek1/2, Akt1/2 and phospho-Akt1/2/3) or 24 hours (for VEGF, VEGF-C and VEGF-D). Media were aspirated and cells were homogenized per manufacture instructions. Total protein concentration was determined by Bradford assay. […] The reaction was quenched with 3 M sulfuric acid, and the plates were analyzed using a UV plate reader at 450 nm. Data were quantified by comparing to a standardized curve with varying concentrations of protein from untreated cells.
# VEGFR3 = experiment: Whole cell ELISA for VEGFR3; settings: addition of ligand, 24 hours
# Method: (§2) ELISA was performed using whole cells to quantify relative levels of kinase activity. NBT-II cells were grown until confluence in 75 cm^2 flasks. Each flask was washed with 20 ml PBS and treated with 3 ml trypsin-EDTA at 37° C. for 3-5 minutes, until cells detached. Cells were centrifuged for 3 minutes at 195×g. The supernatant was aspirated, and the cells were resuspended in 10 ml media. The cell density was measured using an electronic cell counter, and the suspension was diluted to 50,000 cells/ml. 100 mm dishes were supplemented with 10 ml cell suspension per dish. After a 24 hour incubation, the media was aspirated, the dishes washed with serum free media, and the cells supplemented with media containing 0.1% FBS. After a 24 hour incubation, dishes were treated with PBS, 10 μg/ml heparin or 10 μg/ml DS DT. Subsequently, cells were treated with 10 ng/ml FGF7, 10 ng/ml VEGF or both. Cells were incubated for 30 minutes (for Erk1, Erk2, phosphor-Erk1/2, Mek1, Mek2, phospho-Mek1/2, Akt1/2 and phospho-Akt1/2/3) or 24 hours (for VEGF, VEGF-C and VEGF-D). […] Total protein concentration was determined by Bradford assay. […] The reaction was quenched with 3 M sulfuric acid, and the plates were analyzed using a UV plate reader at 450 nm. Data were quantified by comparing to a standardized curve with varying concentrations of protein from untreated cells.
# VEGF-D = experiment: Whole cell ELISA for VEGF-D; settings: FGF2 in the presence of PBS, heparin or DS DT, 24 hours
# Method: as §1
# [1] = test system: phospho-Akt1/2/3 (Thr 308); experiment: Whole cell ELISA for phospho-Akt1/2/3 (Thr 308); settings: ligand in the presence of PBS (no GAG)
# Method: as §2
# [2] = FGF7: ligand (10 ng/ml) or PBS plus FGF7 at 10 ng/ml
Molecule,percent reduction in whole cell number ± standard deviation (NBT-II cells; [2]),percent reduction in whole cell number ± standard deviation (NBT-II cells; PBS: ligand at 10 ng/ml alone),proliferative effect of ligand in the absence of GAGs (NBT-II cells),reduction in whole cell number (NBT-II cells),reduction in cell number in the presence of FGF7 (NBT-II cells),VEGFR3 production (VEGFR3),further results
"FGF1: Recombinant FGF1, gift from Amgen",18.0 ± 2.6%,5.4 ± 8.3%,did not induce significant proliferative effects,–,–,–,–
VEGF,30.1 ± 7.0%,19.8 ± 4.5%,reduced whole cell number,19.8±4.5%,30.1±7.0%,not,"VEGF-C levels (VEGF-C; ligand over 24 hours, regardless of GAG used): increased"
"FGF2: Recombinant human FGF2, gift from Scios",30.4 ± 8.7%,18.3 ± 5.0%,reduced whole cell number,–,–,–,"production of VEGF-C (VEGF-C; FGF2 in the presence of PBS, heparin or DS DT, 24 hours): did not alter; production of VEGF-D (VEGF-D): did not alter"
B1,14.1 ± 2.5%,–,–,14.1±2.5%,–,increase,"reduction of phosphorylation of Akt1/2/3 (Thr 308) [1]: ~20%; increase in whole cell number (NBT-II cells; FGF7 alone, cells treated with 50 mM sodium chlorate): 28.4±11.8%; concentration eliciting maximal effect on cell growth (NBT-II cells; dose response, no sodium chlorate, effect constant through 100 ng/ml): 5 ng/mL; concentration at which maximal proliferative effect is achieved (NBT-II cells; in the presence of 50 mM sodium chlorate): 10 ng/mL"
B2,–,–,–,13.4±8.7%,5.9±5.0%,–,–
B3,–,–,–,16.2±10.8%,34.5±1.5%,–,–
